In EP0061157A1, “2-Benzoylamino substituted benzylamine derivative and a process for preparation thereof” (Hokuriku Pharmaceutical Co.,Ltd, priority 1981, dated 1982):
Where a name gives a salt, the structure may show the parent alone. Marks after values point to notes of the source that are not given here.

How the values were obtained:
Acute toxicity test = conditions: mouse, in vivo, mice, Litchfield-Wilcoxon, dead animals within 7 days
Procedure: Male mice of ddy-strain weighing 20 to 25 g were used. Drugs were administered orally and intraperitoneally to 10 mice in each group. LD50 was calculated by the Litchfield-Wilcoxon method from dead animals within 7 days.

[1] = system: acid glycoprotein in submucosal glandular cells of the trachea; assay: Effect on the dissolution of acid glycoprotein in submucosal glandular cells of the trachea (isolated tracheal strips, AB/PAS staining); type: cell-based, dogs; conditions: for Ratio of Glandular Cells Containing Acid Glycoprotein to Total Glandular Cells (%): control 72.4; for EC50: Canis lupus familiaris, dose required for decreasing acid glycoprotein by 50%, calculated from Table III data, read-out: ED50 (the source's name); for Potency Ratio: from ED50, dose of reference drug 1 made 1
Procedure: Experiments were performed following the method of Yanaura et al. (Nippon Yakurigaku Zasshi, 77, 559 - 568 (1981)). Male mongrel dogs weighing 10 to 12 kg were anesthetized with sodium pentobarbital (30 mg/kg, i.v.). The trachea was quickly excised about 10 cm long and rapidly […] to a Hanks' solution (95% 02 - 5% CO2, 37 + 1° ). Connective tissues around were removed and the trachea was cut into strips about 2 cm long. The tracheal strips were preincubated for 30 minutes in Hanks' solution, and then drugs were added to the solution and the mixtures were further incubated for 30 minutes. The tracheal strips were then fixed with a 10% formaldehyde isotonic solution followed by dehydrating in a series of graded ethanol concentrations and paraffinembedding in a conventional manner. Sections 4 µm thick were cut with a Jung type microtome and stained with alcian blue (pH 2.5) - periodic acid Schiff (AB (pH 2.5)/PAS). The specimens were studied by the optical microscopic observation with the effects of drugs on the secretory activities of the tracheal secretory cells and on the dissolution of acid glycoprotein in submucosal glandular cells of the tracheal. As a tracheal mucus dissolution activity, an effect on the dissolution of acid glycoprotein in submucosal glandular cells was observed. In double staining with AB (pH 2.5)/PAS, submucosal glandular cells containing much acid glycoprotein were strongly stained blue because of the reaction with AB. When acid glycoprotein in glandular cells is dissolved and its acid groups were lost, it is stained with PAS instead of AB. Consequently, submucosal glandular cells turned to red from blue in color. The ratio of blue glandular cells to total glandular cells was observed, and the effect on the dissolution of acid glycoprotein was estimated by decrease in the ratio. Based on the above data, a dose of each of the compounds tested required for decreasing acid glycoprotein by 50% (ED50) was calculated. Further, a potency ratio was determined when the dose of reference drug 1 was made 1.

tracheal secretory cells = assay: Effect on the secretory activity of the tracheal secretory cells (isolated tracheal strips, AB/PAS staining, A^IWR); type: cell-based, dogs; conditions: for Acinar Inner Diameter of Submucosal Gland to Wall Ratio (A^IWR): dog tracheal strips incubated 30 minutes, control 5.0 x 10^-2; for activation at 10 µM / activation at 1 µM / activation at 0.1 µM: Canis lupus familiaris, 0.5 h, relative to control, read-out: Increasing Rate in A^IWR (%)
Procedure: Experiments were performed following the method of Yanaura et al. (Nippon Yakurigaku Zasshi, 77, 559 - 568 (1981)). Male mongrel dogs weighing 10 to 12 kg were anesthetized with sodium pentobarbital (30 mg/kg, i.v.). The trachea was quickly excised about 10 cm long and rapidly […] to a Hanks' solution (95% 02 - 5% CO2, 37 + 1° ). Connective tissues around were removed and the trachea was cut into strips about 2 cm long. The tracheal strips were preincubated for 30 minutes in Hanks' solution, and then drugs were added to the solution and the mixtures were further incubated for 30 minutes. The tracheal strips were then fixed with a 10% formaldehyde isotonic solution followed by dehydrating in a series of graded ethanol concentrations and paraffinembedding in a conventional manner. Sections 4 µm thick were cut with a Jung type microtome and stained with alcian blue (pH 2.5) - periodic acid Schiff (AB (pH 2.5)/PAS). The specimens were studied by the optical microscopic observation with the effects of drugs on the secretory activities of the tracheal secretory cells and on the dissolution of acid glycoprotein in submucosal glandular cells of the tracheal. A thickness between basement membrance and cartilage (thickness of […]; wall is referred to as "W"), and acinar inner diameter of submucosal gland (A^I) were measured. Then, acinar inner diameter of submucosal gland to wall ratio (A^IWR) was calculated. Increase of A^IWR reflects enhancement of the secretory activity in submucosal gland. If test drug has a significant increase in A^IWR, it has a respiratory tract fluid (RTF) - increasing effect.

[2] = compared with reference drugs 1 and 2

| SMILES | LD50 at 168 h (Acute toxicity test; ip, I.P.) [mg/kg] | LD50 at 168 h (Acute toxicity test; po, P.O.) [mg/kg] | Ratio of Glandular Cells Containing Acid Glycoprotein to Total Glandular Cells (%) ([1]; 1 x 10^-5 M) | Ratio of Glandular Cells Containing Acid Glycoprotein to Total Glandular Cells (%) ([1]; 1 x 10^-6 M) | Ratio of Glandular Cells Containing Acid Glycoprotein to Total Glandular Cells (%) ([1]; 1 x 10^-7 M) | EC50 [1] [µM] | mucolytic activity (dissolution of acid glycoprotein), times stronger than that of reference drugs 1 and 2 [1, 2] [times] | Potency Ratio [1] | Acinar Inner Diameter of Submucosal Gland to Wall Ratio (A^IWR) (tracheal secretory cells; 1 x 10^-5M) | Acinar Inner Diameter of Submucosal Gland to Wall Ratio (A^IWR) (tracheal secretory cells; 1 x 10^-6M) | Acinar Inner Diameter of Submucosal Gland to Wall Ratio (A^IWR) (tracheal secretory cells; 1 x 10^-7M) | activation at 10 µM (tracheal secretory cells; 1 x 10^-5M) [%] | activation at 1 µM (tracheal secretory cells; 1 x 10^-6M) [%] | activation at 0.1 µM (tracheal secretory cells; 1 x 10^-7M) [%] | enhancement in A^IWR, times as strong as that of reference drugs 1 and 2 (tracheal secretory cells; [2]) |
| --- | --- | --- | --- | --- | --- | --- | --- | --- | --- | --- | --- | --- | --- | --- | --- |
| COc1cc(C(=O)Nc2c(Br)cc(Br)cc2CN(C)C2CCCCC2)ccc1O.Cl [Compound of This Invention, 2-(4-Hydroxy-3-methoxybenzoylamino)-3,5-dibromo-N-cyclohexyl-N-methylbenzylamine hydrochloride] | > 4000 | > 12000 | 10.6** % | 21.6** % | 42.0** % | 0.23 | 10 | 10.87 | 7.3 x 10^-2** | 7.1 x 10^-2** | 6.1 x 10^-2* | 46 | 42 | 22 | about 10 times |
| COc1cc(C(=O)Nc2c(Br)cc(Br)cc2CN(C)C2CCCCC2)ccc1OC(C)=O [Reference Drug 1, 2-(4-Acetoxy-3-methoxybenzoylamino)-3.5-dibromo-N-cyclohexyl-N-methylbenzylamine hydrochloride] | > 4000 | > 12000 | 23.8** % | 46.8** % | 71.0% | 2.5 |  |  | 6.5 x 10^-2** | 6.2 x 10^-2* | 5.3 x 10^-2 | 30 | 24 | 6 |  |
| CN(Cc1cc(Br)cc(Br)c1N)C1CCCCC1.Cl [Reference Drug 2, 2-Amino-3,5-dibromo-N-cyclohexyl-N-methylbenzylamine hydrochloride] | 2320 | 9000 | 17.5** % | 30.0** % | 66.2% | 1.3 |  | 1.92 | 6.2 x 10^-2* | 5.6 x 10^-2 | 5.2 x 10^-2 | 24 | 12 | 4 |  |
